This test has as its target T1, human FXR (Homo sapiens, UniProt Q96RI1).
T1 construct: expressed in transfected cells; host or cells: HEK293 cells stably carrying a 5xGal4-response-element firefly luciferase reporter, transiently transfected with pcDNA3.1-Gal4-FXR
T1 sequence (Q96RI1 262-486 limits assumed): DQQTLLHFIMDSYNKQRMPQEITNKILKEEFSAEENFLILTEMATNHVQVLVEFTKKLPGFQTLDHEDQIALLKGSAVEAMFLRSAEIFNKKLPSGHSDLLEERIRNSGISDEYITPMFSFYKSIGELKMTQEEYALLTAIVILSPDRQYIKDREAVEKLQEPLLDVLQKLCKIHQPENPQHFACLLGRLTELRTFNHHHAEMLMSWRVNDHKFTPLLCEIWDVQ
Nature of the test: transient human FXR/Gal4-luciferase reporter assay. The class given is cell-based. The note with it: Gal4-hFXR LBD fusion, luciferase reporter in HEK293 cells; response relative to 8 μM GW-4064. In short, it runs like this: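 HEK293 cells stably carrying a 5×Gal4-response-element firefly luciferase reporter were transiently transfected with Gal4-hFXR. They were then incubated overnight at 37 °C with compound serial dilutions in medium containing 10% charcoal/dextran-stripped FBS. Luminescence was read after Steady-Glo addition.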
`Cc1nc2ccc(-c3cccc(N(CC45CCC(c6cc(C7CC7)nn6C)(CC4)CC5)C(=O)C4CCC(F)(F)CC4)c3)cc2s1` [Example 137, N-((4-(3-cyclopropyl-1-methyl-1H-pyrazol-5-yl)bicyclo[2.2.2]octan-1-yl)methyl)-4,4-difluoro-N-(3-(2-methylbenzo[d]thiazol-6-yl)phenyl)cyclohexane-1-carboxamide]: the EC50 is 0.449 µM. That is a sub-micromolar value.
The value for `COc1cc(-c2cccc(N(CC34CC(c5nc(C6CC6)no5)(C3)C4)C(=O)C3CCCCC3)c2)ccn1` [Example 96, N-((3-(3-cyclopropyl-1,2,4-oxadiazol-5-yl)bicyclo[1.1.1]pentan-1-yl)methyl)-N-(3-(2-methoxypyridin-4-yl)phenyl)cyclohexanecarboxamide] was 3.43 µM; that for `CN1CCN(C(=O)N(CC23CCC(c4nc(C5CC5)no4)(CC2)CC3)c2cccc(-c3nc(C4CC4)no3)c2)CC1` [Example 59, N-((4-(3-cyclopropyl-1,2,4-oxadiazol-5-yl)bicyclo[2.2.2]octan-1-yl)methyl)-N-(3-(3-cyclopropyl-1,2,4-oxadiazol-5-yl)phenyl)-4-methylpiperazine-1-carboxamide] was 1.38 µM; that for `CCOc1ccc(-c2cccc(N(CC34CCC(c5noc(C(C)(F)F)n5)(CC3)CC4)C(=O)C3CCC(F)(F)CC3)c2)cc1` [Example 113, N-((4-(5-(1,1-difluoroethyl)-1,2,4-oxadiazol-3-yl)bicyclo[2.2.2]octan-1-yl)methyl)-N-(4′-ethoxy-[1,1′-biphenyl]-3-yl)-4,4-difluorocyclohexane-1-carboxamide] was 0.665 µM.
In turn, `O=C(N1CCC(F)(F)CC1)N(CC12CCC(c3nc(C4CC4)no3)(CC1)CC2)c1cccc(-c2nc(C3CC3)no2)c1` [Example 58, N-((4-(3-cyclopropyl-1,2,4-oxadiazol-5-yl)bicyclo[2.2.2]octan-1-yl)methyl)-N-(3-(3-cyclopropyl-1,2,4-oxadiazol-5-yl)phenyl)-4,4-difluoropiperidine-1-carboxamide] yielded an EC50 of 0.413 µM.
Then `CC(C)(C)c1noc(C23CCC(CN(C(=O)C4CCC(F)(F)CC4)c4cccc(-c5nc(C6CC6)no5)c4)(CC2)CC3)n1` [Example 103, N-((4-(3-(tert-butyl)-1,2,4-oxadiazol-5-yl)bicyclo[2.2.2]octan-1-yl)methyl)-N-(3-(3-cyclopropyl-1,2,4-oxadiazol-5-yl)phenyl)-4,4-difluorocyclohexane-1-carboxamide], with 0.25 µM; and `Cn1nc(C2CC2)cc1C12CCC(CN(C(=O)C3CCS(=O)(=O)CC3)c3cccc(-c4ccc(S(C)(=O)=O)cc4)c3)(CC1)CC2` [Example 135, N-((4-(3-cyclopropyl-1-methyl-1H-pyrazol-5-yl)bicyclo[2.2.2]octan-1-yl)methyl)-N-(4′-(methylsulfonyl)-[1,1′-biphenyl]-3-yl)tetrahydro-2H-thiopyran-4-carboxamide 1,1-dioxide], with 4 µM.
The value for `O=C(C1CCOCC1)N(CC12CCC(c3nc(C4CC4)no3)(CC1)CC2)c1cccc(-c2nc(C3CC3)no2)c1` [Example 15, N-((4-(3-cyclopropyl-1,2,4-oxadiazol-5-yl)bicyclo[2.2.2]octan-1-yl)methyl)-N-(3-(3-cyclopropyl-1,2,4-oxadiazol-5-yl)phenyl)tetrahydro-2H-pyran-4-carboxamide] was 0.134 µM; that for `O=C(C1CCCOC1)N(CC12CCC(c3nc(C4CC4)no3)(CC1)CC2)c1cccc(-c2nnc(C3CC3)o2)c1` (racemic) [Example 55, N-((4-(3-cyclopropyl-1,2,4-oxadiazol-5-yl)bicyclo[2.2.2]octan-1-yl)methyl)-N-(3-(5-cyclopropyl-1,3,4-oxadiazol-2-yl)phenyl)tetrahydro-2H-pyran-3-carboxamide] was 0.929 µM; that for `CCOc1ccc(-c2cc(N(CC34CCC(c5noc(C(C)(F)F)n5)(CC3)CC4)C(=O)C3CCC(O)(C(F)(F)F)CC3)ccc2F)cc1` (single isomer, unassigned) [Example 164, N-((4-(5-(1,1-difluoroethyl)-1,2,4-oxadiazol-3-yl)bicyclo[2.2.2]octan-1-yl)methyl)-N-(4′-ethoxy-6-fluoro-[1,1′-biphenyl]-3-yl)-4-hydroxy-4-(trifluoromethyl)cyclohexane-1-carboxamide] was 0.271 µM.
Then `CCOc1ncc(-c2cccc(N(CC34CCC(c5nc(C(C)(C)C)no5)(CC3)CC4)C(=O)C3CCOCC3)c2)cn1` [Example 87, N-((4-(3-(tert-butyl)-1,2,4-oxadiazol-5-yl)bicyclo[2.2.2]octan-1-yl)methyl)-N-(3-(2-ethoxypyrimidin-5-yl)phenyl)tetrahydro-2H-pyran-4-carboxamide], with 0.274 µM; and `CCOc1ccc(-c2cc(N(CC34CCC(c5noc(C(C)(F)F)n5)(CC3)CC4)C(=O)C3CCC(O)(C(F)(F)F)CC3)ccc2F)cc1` (single isomer, unassigned) [Example 165, N-((4-(5-(1,1-difluoroethyl)-1,2,4-oxadiazol-3-yl)bicyclo[2.2.2]octan-1-yl)methyl)-N-(4′-ethoxy-6-fluoro-[1,1′-biphenyl]-3-yl)-4-hydroxy-4-(trifluoromethyl)cyclohexane-1-carboxamide], with 0.263 µM; and `O=C(C1CCOCC1)N(CC12CCC(c3nc(C4CC4)no3)(CC1)CC2)c1cccc(-c2ccnc(OC3CC3)n2)c1` [Example 86, N-(3-(2-cyclopropoxypyrimidin-4-yl)phenyl)-N-((4-(3-cyclopropyl-1,2,4-oxadiazol-5-yl)bicyclo[2.2.2]octan-1-yl)methyl)tetrahydro-2H-pyran-4-carboxamide], with 2.47 µM.
For the compound `CC(F)(F)c1nc(C23CCC(CN(C(=O)C4CCC(F)(F)CC4)c4cccc(-c5cc(C6CC6)on5)c4)(CC2)CC3)no1` [Example 154, N-(3-(5-cyclopropylisoxazol-3-yl)phenyl)-N-((4-(5-(1,1-difluoroethyl)-1,2,4-oxadiazol-3-yl)bicyclo[2.2.2]octan-1-yl)methyl)-4,4-difluorocyclohexane-1-carboxamide], the midpoint of the response, the EC50, lay at 0.057 µM. This EC50 lies about 43-fold lower than the previous one.
Then `Cc1cnc(C23CCC(CN(C(=O)C4CCCCC4)c4cccc(-c5nc(C6CC6)no5)c4)(CC2)CC3)o1` [Example 35, N-(3-(3-cyclopropyl-1,2,4-oxadiazol-5-yl)phenyl)-N-((4-(5-methyloxazol-2-yl)bicyclo[2.2.2]octan-1-yl)methyl)cyclohexanecarboxamide], with 0.515 µM; and `O=C(C1CCOCC1)N(CC12CCC(c3nc(C4CC4)no3)(CC1)CC2)c1cccc(-c2nnc(C3CC3)o2)c1` [Example 54, N-((4-(3-cyclopropyl-1,2,4-oxadiazol-5-yl)bicyclo[2.2.2]octan-1-yl)methyl)-N-(3-(5-cyclopropyl-1,3,4-oxadiazol-2-yl)phenyl)tetrahydro-2H-pyran-4-carboxamide], with 0.373 µM.
Then `CC(C)(C)c1noc(C23CCC(CN(C(=O)C4CCS(=O)(=O)CC4)c4cccc(-c5cc(C6CC6)on5)c4)(CC2)CC3)n1` [Example 160, N-((4-(3-(tert-butyl)-1,2,4-oxadiazol-5-yl)bicyclo[2.2.2]octan-1-yl)methyl)-N-(3-(5-cyclopropylisoxazol-3-yl)phenyl)tetrahydro-2H-thiopyran-4-carboxamide 1,1-dioxide], with 0.701 µM; and `CCc1noc(-c2cccc(N(CC34CCC(c5nc(C6CC6)no5)(CC3)CC4)C(=O)C3CCCCC3)c2)n1` [Example 4, N-((4-(3-cyclopropyl-1,2,4-oxadiazol-5-yl)bicyclo[2.2.2]octan-1-yl)methyl)-N-(3-(3-ethyl-1,2,4-oxadiazol-5-yl)phenyl)cyclohexanecarboxamide], with 0.049 µM.
The value for `CCCc1ncc(-c2cccc(N(CC34CCC(c5nc(C6CC6)no5)(CC3)CC4)C(=O)C3CCOCC3)c2)o1` [Example 29, N-((4-(3-cyclopropyl-1,2,4-oxadiazol-5-yl)bicyclo[2.2.2]octan-1-yl)methyl)-N-(3-(2-propyloxazol-5-yl)phenyl)tetrahydro-2H-pyran-4-carboxamide] was 0.053 µM; that for `COc1cccc(-c2cccc(N(CC34CCC(c5nc(C6CC6)no5)(CC3)CC4)C(=O)C3CCCCC3)c2)c1` [Example 74, N-((4-(3-cyclopropyl-1,2,4-oxadiazol-5-yl)bicyclo[2.2.2]octan-1-yl)methyl)-N-(3′-methoxy-[1,1′-biphenyl]-3-yl)cyclohexanecarboxamide] was 0.151 µM.
The compound `O=C(N1CCC(O)CC1)N(CC12CCC(c3nc(C4CC4)no3)(CC1)CC2)c1cccc(-c2nc(C3CC3)no2)c1` [Example 61, N-((4-(3-cyclopropyl-1,2,4-oxadiazol-5-yl)bicyclo[2.2.2]octan-1-yl)methyl)-N-(3-(3-cyclopropyl-1,2,4-oxadiazol-5-yl)phenyl)-4-hydroxypiperidine-1-carboxamide] registered an EC50 of 3.67 µM.
The value for `O=C(C1CCOCC1)N(CC12CCC(c3nc(C4CC4)no3)(CC1)CC2)c1cccc(-c2cc(C3CC3)on2)c1` [Example 40, N-((4-(3-cyclopropyl-1,2,4-oxadiazol-5-yl)bicyclo[2.2.2]octan-1-yl)methyl)-N-(3-(5-cyclopropylisoxazol-3-yl)phenyl)tetrahydro-2h-pyran-4-carboxamide] was 0.078 µM; that for `COc1cc(-c2cccc(N(CC34CCC(c5nnnn5C)(CC3)CC4)C(=O)C3CCCCC3)c2)ccn1` [Example 100, N-(3-(2-methoxypyridin-4-yl)phenyl)-N-((4-(1-methyl-1H-tetrazol-5-yl)bicyclo[2.2.2]octan-1-yl)methyl)cyclohexanecarboxamide] was 0.506 µM.

The values are drawn from patent publication US12227496B2 (BRISTOL-MYERS SQUIBB COMPANY, priority 2019, dated 2025).
